Source: US7214663B2, “Tripeptide prodrug compounds” (Medarex, Inc., priority 2001, dated 2007)

How the values were obtained:
[1] = test system: PC-3 (prostate carcinoma) cells; conditions: PC-3, 48 hours, 3H-thymidine incorporation
Experimental: (§1) Adherent cells, LNCaP (prostate carcinoma), HT-29 (colon carcinoma) and PC-3 (prostate carcinoma), were cultured in DMEM media containing 10% heat inactivated fetal calf serum (FCS). On the day of the study the cells were detached from the plate with a trypsin solution. The collected cells were washed and resuspended at a concentration of 0.25×10^6 cells/ml in DMEM containing 10% FCS. 100 μl of cell suspension were added to 96 well plates and the plates were incubated for 3 hours to allow the cells to adhere. […] The plates were then incubated for 24 hours, pulsed with 10 μl of a 100 μCi/ml ^3H-thymidine and incubated for an additional 24 hours (total incubation time 48 hours). The plates were harvested using a 96 well Harvester (Packard Instruments) and counted on a Packard Top Count Counter. Four parameter logistic curves were fitted to the ^3H-thymidine incorporation as a function of drug molarity using Prism software to determine IC50 values.
(§2) Prostate carcinoma cells, LNCaP and PC-3 cells or colon carcinoma cells HT-29, were incubated with increasing concentration of the indicated compounds for 48 hours and cellular proliferation was measured using the ^3H-thymidine assay.

[2] = test system: LNCaP (prostate carcinoma) cells; conditions: 48 hours, 3H-thymidine incorporation
Experimental: as §1, §2

[3] = test system: HT-29 (colon carcinoma) cells; conditions: HT29, 48 hours, 3H-thymidine incorporation
Experimental: as §1, §2

[4] = Metabolism and clearance of Suc-Leu-Ala-Leu-Dox in mice (plasma, urine); assay type: in vivo, mouse; conditions: after single intravenous 117 mg/kg Suc-Leu-Ala-Leu-Dox
Experimental: Plasma samples of 100 μl were transferred to microcentrifuge tubes (1.5 mL) and an internal standard of daunorubicin (20 μL at 0.5 mg/ml) was added together with acetonitrile (400 μl). The tubes were capped and briefly vortexed followed by centrifugation at 14,000 rpm. 420 μl from each tube was removed and dried in vacuo. Each sample was reconstituted in 65 μl 20 mM aqueous ammonium formate (AF) pH 4.5 buffer containing acetonitrile (20%) prior to analysis by reverse phase liquid chromatography in combination with tandem mass spectrometry (LC MS/MS).
Urine was collected at 2 and 24 hours post administration from pairs of mice in metabolic cages. Urine samples were diluted with AF buffer containing acetonitrile (20%) to give a target analyte concentration within the practical range of the LC MS/MS assay. 30 μl of each diluted sample was placed in a micro centrifuge tube (1.5 ml) and an internal standard of daunorubicin (20 μL at 0.5 mg/ml) was added together with 50 μl of AF buffer containing acetonitrile (20%). Each sample was then analyzed by LC MS/MS.
An Agilent HP1100 HPLC with DAD detector and Chemstation software was coupled to a PE Sciex API 365 mass spectrometer with an electrospray ion source. HPLC was performed on a TSK-Gel Super ODS, […], 4.6×50 mm (TosoHaas) reversed phase column equipped with a […] C18 guard disc (Higgins Analytical) and stainless steel frit (Upchurch Scientific). Chromatography was performed at room temperature. The flow rate was 0.5 ml/min. Injection volume was 50 μl. Gradient elution was performed using a mobile phase of AF buffer with increasing amounts of acetonitrile. The API 365 was operated at 365° C. in a multiple reaction monitoring mode, set to monitor specific analyte parent-daughter ion pairs. Integration of chromatograms was performed by MacQuan software (PE Sciex) and quantitation of each analyte obtained by comparison to previously obtained calibration curves. Daunorubicin was used as an internal standard in all cases.

[5] = test system: HeLa cell anion exchange fraction (F1), trouase; assay: Relative cleavage by HeLa cell anion exchange fraction (F1) versus Suc-βAla-Leu-Ala-Leu standard; assay type: biochemical, human
Experimental: Thirty billion commercially produced HeLa Cells (human cervical carcinoma, Computer Cell Culture Ceizter, Seneffe, Belgium) were homogenized with a sonicator and with a Dounce homogenizer in 108 mL of aqueous lysis solution. The lysis solution contained 0.02% w/v Triton X-100, 0.04% w/v sodium azide, and a cocktail of protease inhibitors (2 tablets/50 mL Complete™, EDTA-free tablets, Roche Molecular Biochemicals). The cell homogenate was centrifuged 30 minutes at 4° C. at 5000×g and the pellet was homogenized in a second 108 mL of lysis solution using a Dounce homogenizer and centrifuged as before. The supernatants were combined and centrifuged for 90 min at 145,000×g at 4° C.
A portion of the ultracentrifugation supernatant was diluted 2-fold with a 20 mM triethanolamine-HCl pH 7.2 buffer containing 0.01% (w/v) Triton X-100 and 0.02% (w/v) sodium azide (equilibration buffer). Thirty mL of the resulting solution, corresponding to approximately 180 mg of protein, was loaded at 4° C. on a 2.6×9.4 cm Source™ 15Q (Amersham Pharmacia Biotech) low pressure anion exchange chromatography column (1 ml/minute). The column was then washed with 250 ml of the equilibration buffer at a flow rate of 1 mL/minute. Proteins were eluted in a NaCl linear concentration gradient (0–0.5 M in the equilibration buffer, total volume of the gradient was 1000 ml) at a flow rate of 3 ml/minute. Two-minute fractions were collected and used for enzyme activity determination using βAla-Leu-Ala-Leu-Dox as the substrate. Its transformation into Ala-Leu-Dox was quantified by reverse phase high performance liquid chromatography utilizing fluorescence detection of the anthracycline moiety. The fractions containing the highest activity levels were pooled (fractions #43–46; ˜0.13 M NaCl), supplemented with protease inhibitors (Complete™, EDTA-free tablets, Roche Molecular Biochemicals), and stored as aliquots at −80° C.
Test compounds were incubated for 2 hr at 37° C. at a concentration of 12.5 μg/mL with HeLa cell anion exchange fraction (F1), as prepared in Example 1(c). Following incubation, three volumes of acetonitrile were added to stop the reaction and remove protein from the mixture. The sample was centrifuged at 18,000 g for 5 minutes and 100 μL of supernatant was mixed with 300 μL of water prior to analysis by HPLC. For HPLC analysis 50 μL of sample was injected on a 4.6×50 mm 2μ TSK Super-ODS chromatography column at 40° C. and eluted with a 3 minute linear gradient from 26% to 68% acetonitrile in aqueous 20 mM ammonium acetate pH 4.5 buffer at 2 mL/min. Detection was by fluorescence using an excitation wavelength of 235 nm and an emission wavelength of 560 nm.
the amount of cleavage of each test compound was compared to the amount of a standard Suc-βAla-Leu-Ala-Leu-therapeutic agent conjugate cleaved by F1 under the same conditions. The therapeutic agent in the standard (Dox or Dnr) was the same as in the test compound. Table 3 provides the relative cleavage rates of several tripeptide prodrugs.

Work on `COc1cccc2c1C(=O)c1c(O)c3c(c(O)c1C2=O)C[C@@](O)(C(=O)CO)C[C@@H]3O[C@H]1C[C@H](NC(=O)[C@H](CC(C)C)NC(=O)[C@H](C)NC(=O)[C@H](CC(C)C)NC(=O)CCC(=O)O)[C@H](O)[C@H](C)O1` [Suc-Leu-Ala-Leu-Dox] yielded an IC50 [1] of 50 µM, an IC50 [2] of ~1000 nM and an IC50 [3] of 36 µM. The “Plasma 1 hr, percent of administered dose” value [4] was 1.49%, the “Urine 2 hr, percent of administered dose” value [4] was 9.31% and the “Urine 24 hr, percent of administered dose” value [4] was 2.11%. For the same molecule, the dose excreted at 2 h ([4]; female, mouse, in vivo, read-out: Urine 2 hr, percent of administered dose) was 9.31%, the “Relative Cleavage %” value ([5]; 2 hr at 37° C., 12.5 μg/mL, HeLa F1, relative to Suc-βAla-Leu-Ala-Leu-(Dox or Dnr) standard) was 62% and the “Relative Rate of Cleavage” value ([5]; relative to Suc-βAla-Leu-Ala-Leu-Dox = 100 (Tables 11 and 12)) was 62.
